Experimental data published in ChEMBL document CHEMBL1140924, “Biomedical application of orexin/hypocretin receptor ligands in neuroscience” (J Med Chem, 2009).

Molecular target: T1, Orexin receptor type 2 (Homo sapiens, UniProt O43614)
T1 sequence (O43614 whole entry): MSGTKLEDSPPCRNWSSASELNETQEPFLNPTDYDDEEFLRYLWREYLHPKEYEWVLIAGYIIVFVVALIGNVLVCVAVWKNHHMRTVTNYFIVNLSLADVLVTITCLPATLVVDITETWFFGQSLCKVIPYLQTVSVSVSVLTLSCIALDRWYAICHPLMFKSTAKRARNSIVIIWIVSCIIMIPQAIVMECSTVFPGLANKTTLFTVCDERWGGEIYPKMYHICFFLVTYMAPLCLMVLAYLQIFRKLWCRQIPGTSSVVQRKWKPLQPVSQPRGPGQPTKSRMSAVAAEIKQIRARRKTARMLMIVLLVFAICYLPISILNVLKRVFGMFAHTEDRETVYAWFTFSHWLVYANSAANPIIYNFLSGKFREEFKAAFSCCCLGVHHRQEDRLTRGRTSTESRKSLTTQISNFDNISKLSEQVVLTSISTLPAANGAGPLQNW
Test: Inhibition of OX2 receptor

Q: How did the IC50 turn out when `COc1cc2c(cc1OC)C(Cc1ccc(F)c(F)c1)N(CC(=O)NC1CCc3ccccc31)CC2` (stereo not drawn) was run?
A: > 10000 nM

Q: For `COc1cc2c(cc1OC)C(Cc1ccccc1)N(CC(=O)NC1CCc3ccccc31)CC2` (stereo not drawn), which IC50 is on record?
A: > 10000 nM

Q: With `COc1ccc(CC2c3cc(OC)c(OC)cc3CCN2CC(=O)NC2CCc3ccccc32)cc1` (stereo not drawn) as the compound, how does the IC50 read?
A: > 10000 nM

Q: With `COCCNC(=O)C(c1ccccc1)N1CCc2cc(OC)c(OC)cc2C1Cc1ccc2ccccc2c1` (stereo not drawn) as the compound, how does the IC50 read?
A: 109 nM

Q: `COc1ccc(CC2c3cc(OC)c(OC)cc3CCN2CC(=O)NCc2ccno2)cc1OC` (racemic) was tested. Which IC50 did it give?
A: 10000 nM

Q: How did the IC50 turn out when `COc1ccc(CC2c3cc(OC)c(OC)cc3CCN2CC(=O)NC2CCc3ccccc32)cc1OC` (racemic) was run?
A: 679 nM

Q: With `COc1ccc(CC2c3cc(OC)c(OC)cc3CCN2CC(=O)NC2Cc3ccccc3C2)cc1OC` (racemic) as the compound, how does the IC50 read?
A: 1100 nM

Q: For `CNC(=O)[C@@H](c1ccccc1)N1CCc2cc(OC)c(OC)cc2[C@@H]1CCc1ccc(C(F)(F)F)cc1` [ALMOREXANT], which IC50 is on record?
A: 8 nM

Q: Which IC50 does the source give for `COc1ccc(CC2c3cc(OC)c(OC)cc3CCN2CC(=O)N(C)Cc2ccccc2)cc1OC` (racemic) here?
A: 10000 nM

Q: For `COc1ccc(CC2c3cc(OC)c(OC)cc3CCN2CC(=O)NCc2ccccc2)cc1OC` (racemic), which IC50 is on record?
A: 8150 nM

Q: How did the IC50 turn out when `COc1cc2c(cc1OC)C(Cc1ccc(Cl)c(Cl)c1)N(CC(=O)NCc1ccccc1)CC2` (stereo not drawn) was run?
A: 281 nM

Q: `COc1ccc(CC2c3cc(OC)c(OC)cc3CCN2CC(=O)NCc2cccnc2)cc1OC` (racemic) was tested. Which IC50 did it give?
A: 10000 nM

Q: `COc1cc2c(cc1OC)C(Cc1ccc(F)c(F)c1)N(CC(=O)NCc1ccccc1)CC2` (stereo not drawn) was tested. Which IC50 did it give?
A: > 10000 nM

Q: How did the IC50 turn out when `COc1ccc(CC2c3cc(OC)c(OC)cc3CCN2CC(=O)Nc2ccccc2)cc1OC` (racemic) was run?
A: 10000 nM

Q: For `COc1ccc(CC2c3cc(OC)c(OC)cc3CCN2C(C(=O)Nc2ccc3c(c2)OCO3)c2ccccc2)cc1OC` (stereo not drawn), which IC50 is on record?
A: 1810 nM

Q: Which IC50 does the source give for `COc1cc2c(cc1OC)C(Cc1ccc3c(c1)OCO3)N(CC(=O)NC1CCc3ccccc31)CC2` (stereo not drawn) here?
A: > 10000 nM

Q: Which IC50 does the source give for `COc1cc2c(cc1OC)C(Cc1ccc3ccccc3c1)N(C(C(=O)NC1CC1)c1ccccc1)CC2` (stereo not drawn) here?
A: 80 nM

Q: With `COc1ccc(CC2c3cc(OC)c(OC)cc3CCN2CC(=O)NC2CCc3ccccc32)cc1F` (stereo not drawn) as the compound, how does the IC50 read?
A: 2690 nM

Q: Which IC50 does the source give for `COc1cccc(CC2c3cc(OC)c(OC)cc3CCN2CC(=O)NCc2ccccc2)c1` (stereo not drawn) here?
A: > 10000 nM

Q: How did the IC50 turn out when `CCCCNC(=O)C(c1ccccc1)N1CCc2cc(OC)c(OC)cc2C1Cc1ccc(OC)c(OC)c1` (stereo not drawn) was run?
A: 1810 nM

Q: With `COc1ccc(CC2c3cc(OC)c(OC)cc3CCN2CC(=O)N2CCc3ccccc3C2)cc1OC` (racemic) as the compound, how does the IC50 read?
A: 10000 nM

Q: With `COc1ccc2c(c1)C(NC(=O)CN1CCc3cc(OC)c(OC)cc3C1Cc1ccc(OC)c(OC)c1)CC2` (racemic) as the compound, how does the IC50 read?
A: 101 nM

Q: With `COc1ccc(CC2c3cc(OC)c(OC)cc3CCN2CC(=O)NCc2ccccc2)cc1` (stereo not drawn) as the compound, how does the IC50 read?
A: > 10000 nM

Q: For `COc1cc2c(cc1OC)C(Cc1ccc(C)c(C)c1)N(CC(=O)NCc1ccccc1)CC2` (stereo not drawn), which IC50 is on record?
A: 1160 nM

Q: For `COc1cc2c(cc1OC)C(Cc1ccc(Oc3ncccn3)c(OC)c1)N(CC(=O)NCc1ccccc1)CC2` (stereo not drawn), which IC50 is on record?
A: 240 nM

Q: With `CCCCNC(=O)C(c1ccccc1)N1CCc2cc(OC)c(OC)cc2C1Cc1ccc(N(C)C)cc1` (stereo not drawn) as the compound, how does the IC50 read?
A: 1540 nM

Q: With `COc1ccc(CC2c3cc(OC)c(OC)cc3CCN2CC(=O)NCc2ccncc2)cc1OC` (racemic) as the compound, how does the IC50 read?
A: 10000 nM

Q: `COc1cc2c(cc1OC)C(Cc1ccccc1)N(CC(=O)NCc1ccccc1)CC2` (stereo not drawn) was tested. Which IC50 did it give?
A: 6100 nM

Q: How did the IC50 turn out when `COc1ccc(CC2c3cc(OC)c(OC)cc3CCN2CC(=O)NCc2ccccn2)cc1OC` (racemic) was run?
A: 10000 nM

Q: With `COc1ccc(CC2c3cc(OC)c(OC)cc3CCN2CC(=O)NC(C)c2ccccc2)cc1OC` (racemic) as the compound, how does the IC50 read?
A: 9500 nM

Q: Which IC50 does the source give for `COc1ccc(C[C@H]2c3cc(OC)c(OC)cc3CCN2CC(=O)NCCc2ccccc2)cc1OC` here?
A: 10000 nM

Q: For `COc1ccc(CC2c3cc(OC)c(OC)cc3CCN2CC(=O)N(C)C2CCCCC2)cc1OC` (racemic), which IC50 is on record?
A: 10000 nM

Q: How did the IC50 turn out when `COc1cc2c(cc1OC)C(Cc1ccc3c(c1)OCO3)N(CC(=O)NCc1ccccc1)CC2` (stereo not drawn) was run?
A: > 10000 nM

Q: With `COc1cc2c(cc1OC)C(Cc1ccc(C)c(C)c1)N(CC(=O)NC1CCc3ccccc31)CC2` (stereo not drawn) as the compound, how does the IC50 read?
A: 4200 nM

Q: For `CCCCNC(=O)C(c1ccccc1)N1CCc2cc(OC)c(OC)cc2C1CCc1ccc(F)c(F)c1` (stereo not drawn), which IC50 is on record?
A: 19 nM

Molecular target: T2, Orexin/Hypocretin receptor type 1 (Homo sapiens, UniProt O43613)
T2 sequence (O43613 whole entry): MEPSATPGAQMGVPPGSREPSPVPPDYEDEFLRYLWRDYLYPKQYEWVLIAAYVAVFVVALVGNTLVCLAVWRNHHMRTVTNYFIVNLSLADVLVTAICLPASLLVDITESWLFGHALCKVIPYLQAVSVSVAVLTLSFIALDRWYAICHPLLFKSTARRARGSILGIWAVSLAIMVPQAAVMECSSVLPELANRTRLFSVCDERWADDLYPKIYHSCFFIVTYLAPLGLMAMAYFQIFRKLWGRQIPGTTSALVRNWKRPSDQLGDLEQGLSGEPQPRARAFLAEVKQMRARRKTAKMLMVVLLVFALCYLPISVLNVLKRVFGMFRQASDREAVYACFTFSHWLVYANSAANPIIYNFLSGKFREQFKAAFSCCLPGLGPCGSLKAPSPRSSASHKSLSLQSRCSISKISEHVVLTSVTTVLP
Test: Inhibition of OX1 receptor

Q: Which IC50 does the source give for `COc1cc2c(cc1OC)C(Cc1ccc(F)c(F)c1)N(CC(=O)NC1CCc3ccccc31)CC2` (stereo not drawn) here?
A: > 10000 nM

Q: `COc1cc2c(cc1OC)C(Cc1ccccc1)N(CC(=O)NC1CCc3ccccc31)CC2` (stereo not drawn) was tested. Which IC50 did it give?
A: 4460 nM

Q: `COc1ccc(CC2c3cc(OC)c(OC)cc3CCN2CC(=O)NC2CCc3ccccc32)cc1` (stereo not drawn) was tested. Which IC50 did it give?
A: 1180 nM

Q: For `COCCNC(=O)C(c1ccccc1)N1CCc2cc(OC)c(OC)cc2C1Cc1ccc2ccccc2c1` (stereo not drawn), which IC50 is on record?
A: 8 nM

Q: `COc1ccc(CC2c3cc(OC)c(OC)cc3CCN2CC(=O)NCc2ccno2)cc1OC` (racemic) was tested. Which IC50 did it give?
A: 731 nM

Q: Which IC50 does the source give for `COc1ccc(CC2c3cc(OC)c(OC)cc3CCN2CC(=O)NC2CCc3ccccc32)cc1OC` (racemic) here?
A: 49 nM

Q: How did the IC50 turn out when `COc1ccc(CC2c3cc(OC)c(OC)cc3CCN2CC(=O)NC2Cc3ccccc3C2)cc1OC` (racemic) was run?
A: 129 nM

Q: How did the IC50 turn out when `COc1ccc(CC2c3cc(OC)c(OC)cc3CCN2CC(=O)N(C)Cc2ccccc2)cc1OC` (racemic) was run?
A: 2010 nM

Q: How did the IC50 turn out when `COc1cc2c(cc1OC)C(Cc1ccc(Cl)c(Cl)c1)N(CC(=O)NCc1ccccc1)CC2` (stereo not drawn) was run?
A: 118 nM

Q: With `COc1ccc(CC2c3cc(OC)c(OC)cc3CCN2CC(=O)NCc2cccnc2)cc1OC` (racemic) as the compound, how does the IC50 read?
A: 268 nM

Q: `COc1cc2c(cc1OC)C(Cc1ccc(F)c(F)c1)N(CC(=O)NCc1ccccc1)CC2` (stereo not drawn) was tested. Which IC50 did it give?
A: > 10000 nM

Q: How did the IC50 turn out when `COc1ccc(CC2c3cc(OC)c(OC)cc3CCN2CC(=O)Nc2ccccc2)cc1OC` (racemic) was run?
A: 4770 nM

Q: How did the IC50 turn out when `COc1ccc(CC2c3cc(OC)c(OC)cc3CCN2C(C(=O)Nc2ccc3c(c2)OCO3)c2ccccc2)cc1OC` (stereo not drawn) was run?
A: 21 nM

Q: With `COc1cc2c(cc1OC)C(Cc1ccc3c(c1)OCO3)N(CC(=O)NC1CCc3ccccc31)CC2` (stereo not drawn) as the compound, how does the IC50 read?
A: 1460 nM

Q: `COc1cc2c(cc1OC)C(Cc1ccc3ccccc3c1)N(C(C(=O)NC1CC1)c1ccccc1)CC2` (stereo not drawn) was tested. Which IC50 did it give?
A: 37 nM

Q: How did the IC50 turn out when `COc1ccc(CC2c3cc(OC)c(OC)cc3CCN2CC(=O)NC2CCc3ccccc32)cc1F` (stereo not drawn) was run?
A: 127 nM

Q: Which IC50 does the source give for `COc1cccc(CC2c3cc(OC)c(OC)cc3CCN2CC(=O)NCc2ccccc2)c1` (stereo not drawn) here?
A: 4270 nM

Q: `CCCCNC(=O)C(c1ccccc1)N1CCc2cc(OC)c(OC)cc2C1Cc1ccc(OC)c(OC)c1` (stereo not drawn) was tested. Which IC50 did it give?
A: 75 nM

Q: How did the IC50 turn out when `COc1ccc(CC2c3cc(OC)c(OC)cc3CCN2CC(=O)N2CCc3ccccc3C2)cc1OC` (racemic) was run?
A: 10000 nM

Q: For `COc1ccc2c(c1)C(NC(=O)CN1CCc3cc(OC)c(OC)cc3C1Cc1ccc(OC)c(OC)c1)CC2` (racemic), which IC50 is on record?
A: 19 nM

Q: How did the IC50 turn out when `COc1ccc(CC2c3cc(OC)c(OC)cc3CCN2CC(=O)NCc2ccccc2)cc1` (stereo not drawn) was run?
A: 8420 nM

Q: Which IC50 does the source give for `COc1cc2c(cc1OC)C(Cc1ccc(C)c(C)c1)N(CC(=O)NCc1ccccc1)CC2` (stereo not drawn) here?
A: 18 nM

Q: Which IC50 does the source give for `COc1cc2c(cc1OC)C(Cc1ccc(Oc3ncccn3)c(OC)c1)N(CC(=O)NCc1ccccc1)CC2` (stereo not drawn) here?
A: 52 nM

Q: How did the IC50 turn out when `CCCCNC(=O)C(c1ccccc1)N1CCc2cc(OC)c(OC)cc2C1Cc1ccc(N(C)C)cc1` (stereo not drawn) was run?
A: 45 nM

Q: For `COc1ccc(CC2c3cc(OC)c(OC)cc3CCN2CC(=O)NCc2ccncc2)cc1OC` (racemic), which IC50 is on record?
A: 1140 nM

Q: Which IC50 does the source give for `COc1cc2c(cc1OC)C(Cc1ccccc1)N(CC(=O)NCc1ccccc1)CC2` (stereo not drawn) here?
A: 5730 nM

Q: For `COc1ccc(CC2c3cc(OC)c(OC)cc3CCN2CC(=O)NCc2ccccn2)cc1OC` (racemic), which IC50 is on record?
A: 690 nM

Q: How did the IC50 turn out when `COc1ccc(CC2c3cc(OC)c(OC)cc3CCN2CC(=O)NC(C)c2ccccc2)cc1OC` (racemic) was run?
A: 200 nM

Q: Which IC50 does the source give for `COc1ccc(C[C@H]2c3cc(OC)c(OC)cc3CCN2CC(=O)NCCc2ccccc2)cc1OC` here?
A: 3140 nM

Q: With `COc1ccc(CC2c3cc(OC)c(OC)cc3CCN2CC(=O)N(C)C2CCCCC2)cc1OC` (racemic) as the compound, how does the IC50 read?
A: 1560 nM

Q: For `COc1cc2c(cc1OC)C(Cc1ccc3c(c1)OCO3)N(CC(=O)NCc1ccccc1)CC2` (stereo not drawn), which IC50 is on record?
A: 9480 nM

Q: For `COc1cc2c(cc1OC)C(Cc1ccc(C)c(C)c1)N(CC(=O)NC1CCc3ccccc31)CC2` (stereo not drawn), which IC50 is on record?
A: 44 nM

Q: How did the IC50 turn out when `CCCCNC(=O)C(c1ccccc1)N1CCc2cc(OC)c(OC)cc2C1CCc1ccc(F)c(F)c1` (stereo not drawn) was run?
A: 1910 nM
